In US20240110004A1 (Northwestern University, priority 2022, published 2024):
Where no end group is shown, it is not given here.

Legend:
[1] = mouse, in vivo
HdhQ111 cells [2] = assay: Cell uptake by confocal microscopy and flow cytometry; assay type: cell-based, mouse; conditions: compared to the HV3-TAT-Rho peptide and rhodamine dye control
Experimental: Scale bars: 60 μm; 12 μm for inset. Cell Membrane: wheat germ agglutinin-Alexa 488 (green channel). Material: Rhodamine (red channel). Nuclei: Hoechst 33342 stain (blue channel).
Cell Uptake Methods: A major drawback for most peptide-based drugs is poor innate cell membrane permeability, such that many peptide-based drugs fail to reach their putative intracellular targets. Cellular uptake was evaluated by confocal microscopy and flow cytometry using a rhodamine dye labeled version of HV3-TAT (HV3-TAT-Rho) and a rhodamine labeled version of P1 (P1-Rho, e.g., as shown in FIG. 28A). FIG. 28B provides the relative fluorescent intensities of rhodamine alone, HV3-TAT-Rho, and P1-Rho—rhodamine showing near 1:1 addition of dye on to compounds.

HdhQ111 cells [3] = assay: Accumulation assay, flow cytometry 2 and 7 days after a single treatment; assay type: cell-based, mouse; conditions: two and seven days after one treatment
HdhQ111 cells [4] = assay: Mitochondrial localization in live HdhQ111 cells; assay type: cell-based, mouse; conditions: 3 μM, Mitotracker staining
Experimental: FIG. 7: Mitochondrial localization in live HdhQ111 cells. HdhQ111 cells were treated with HV3-TAT-Rho peptide, P1-Rho, and rhodamine dye alone at a concentration of 3 μM. Yellow (i.e., “localization” in FIG. 7) indicates colocalization of green and red channels, signifying localization to the mitochondria. Mitochondria: Mitotracker Green FM (green channel). Material: Rhodamine (red channel). Nuclei: Hoechst 33342 stain (blue channel). Scale Bars: 60 μm; 12 μm for inset.
Mitochondrial Localization Methods: A decisive pathologic hallmark for HdhQ111 cells is mitochondrial fragmentation. Since the mitochondrial membrane is the specific intracellular target location for the designed system, mitochondrial localization of P1-Rho in HdhQ111 cells was evaluated. To visualize mitochondrial localization, the mitochondria were stained with Mito Tracker.

HdhQ111 cells [5] = assay: Cell viability (cell rescue) of serum-starved HdhQ111 cells; assay type: cell-based, mouse; conditions: 3 μM with respect to peptide, once a day for 3 days; compared to the vehicle control
Experimental: FIG. 3A: Cell viability of HV3-TAT peptide and PLPs. Compounds treated to the HdhQ111 cells once a day for 3 days. Concentration was 3 μM with respect to peptide. FIG. 3B: VCP binding assay results for HV3-TAT, P1, P2, and P4.
Cell Viability Methods: In vitro assays were carried out to examine the bioactivity of the PLPs, P1, P2, P3, and P4 and to compare against the known, active HV3-TAT. […] HdhQ111 cells were immortalized from knock-in mice carrying 111 CAG repeats in the mouse Htt gene.
To verify that the PLPs retain bioactivity after being exposed to enzymes or serum treatments, the viability of HD mouse mutant striatal HdhQ111 cells was assessed following treatment with HV3-TAT and P1. […] Cells were maintained at 33° C. and 5% CO2 with a relative humidity of 95%. HdQ111 cells were plated in 96-well plates at a density of 5000 per well and then left to attach for 24 h. Cells were treated with HV3-TAT or PLPs at 3 μM with respect to peptide once a day, for 3 days. The medium was replaced every day. After 72 h, cells were washed 3 times with PBS buffer. At this point, 20 μL of CTB reagent in 80 uL of medium was added, and the cells incubated for 3 hours at 37° C. Fluorescence was measured at 590 nm with excitation at 560 nm using a Perkin Elmer EnSpire plate reader. The average background fluorescence of CTB in media without cells was subtracted from the average fluorescence readings of the experimental wells. Viability was calculated as the average background-subtracted signal in a well compared to that of a negative control well (treatment with vehicle or media). Three replicates were performed for each independent sample. 10% DMSO was used as a positive control and untreated cells in complete medium as a negative control. Viability is reported as a percentage of untreated cells.

[6] = target: T1, interaction between VCP and mtHtt (Homo sapiens, UniProt P55072); assay: VCP binding assay: association of VCP to mtHtt by immunoprecipitation and western blot in HEK293 cells; assay type: cell-based; conditions: HEK293 cells co-transfected with GFP-VCP and myc-Q73 FL, 3 μM, three doses
T1 construct: GFP; expressed in transfected cells; host or cells: HEK293
Experimental: Therefore, target engagement protein binding assays were conducted. HEK293 cells were cultured and plated one day before treatment. Cells were pre-treated with HV3-TAT or PLPs at 3 μM for 2 h. Cells were then co-transfected with GFP-VCP and myc-Q73 FL plasmids. Cells were treated with a second dose of peptide or PLPs 6 hours after transfection, and a final third dose of peptide or PLPs treatment was administered 24 hours after transfection. Cell total lysate was harvested 48 hours after transfection, and to confirm binding of PLPs to VCP in cells, association of VCP to mtHtt was quantified by immunoprecipitation (IP) followed by western blot upon treatment of HV3-TAT peptide and PLPs.

HdhQ111 cells [7] = assay: Mitochondrial fragmentation assay; assay type: cell-based, mouse; conditions: compared to vehicle treatment group, at least 100 cells per group
Experimental: FIG. 8: Mitochondrial fragmentation assay. The percentage of HdhQ111 cells with fragmented mitochondria relative to the total number of cells was quantitated. At least 100 cells per group were counted.
FIG. 9: Mitochondrial fragmentation assay. Mitochondrial morphology was determined by staining cells with anti-Tom20 antibody. Nuclei: Hoechst 33342 stain. […] Scale Bars: 60 μm; 12 μm for inset.
Mitochondrial Fragmentation Methods: As preventing the fragmentation of the mitochondria is important for maintaining the health of striatal cells in the HD in vitro model, the PLP's abilities were tested in this regard.

pepsin = assay: pepsin; conditions: 37° C., up to 450 min
[8] = enzymes (0.1 μM) in DPBS (pH 7.4) or hydrochloric acid solution (pH 2); conditions: 37° C.
[9] = Dulbecco's modified Eagle medium (DMEM) supplemented with 25% fetal bovine serum (FBS); conditions: 37° C.
[10] = Dulbecco's modified Eagle medium (DMEM) supplemented with 10% fetal bovine serum (FBS); conditions: 37° C.

T1 sequence (P55072 whole entry): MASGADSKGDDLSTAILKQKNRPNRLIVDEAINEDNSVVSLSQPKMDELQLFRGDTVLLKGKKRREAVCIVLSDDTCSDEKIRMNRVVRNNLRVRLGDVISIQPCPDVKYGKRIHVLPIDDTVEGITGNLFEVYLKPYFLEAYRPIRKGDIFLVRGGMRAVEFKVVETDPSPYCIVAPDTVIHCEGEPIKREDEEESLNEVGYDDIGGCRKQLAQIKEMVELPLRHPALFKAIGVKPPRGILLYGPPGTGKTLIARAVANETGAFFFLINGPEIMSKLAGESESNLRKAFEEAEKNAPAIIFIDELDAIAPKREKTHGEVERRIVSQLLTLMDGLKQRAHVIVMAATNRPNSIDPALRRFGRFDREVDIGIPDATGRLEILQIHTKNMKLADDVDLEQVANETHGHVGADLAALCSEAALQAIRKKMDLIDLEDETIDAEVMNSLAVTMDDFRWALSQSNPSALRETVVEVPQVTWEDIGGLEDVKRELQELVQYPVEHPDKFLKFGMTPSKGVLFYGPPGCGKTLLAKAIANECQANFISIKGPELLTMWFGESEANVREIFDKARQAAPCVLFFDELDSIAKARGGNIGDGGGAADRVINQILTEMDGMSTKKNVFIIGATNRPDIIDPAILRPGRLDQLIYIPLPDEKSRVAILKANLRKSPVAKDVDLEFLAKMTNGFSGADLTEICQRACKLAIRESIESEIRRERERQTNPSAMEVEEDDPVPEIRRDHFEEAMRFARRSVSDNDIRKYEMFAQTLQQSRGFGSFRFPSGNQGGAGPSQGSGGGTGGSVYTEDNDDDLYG

For “P1-Gd: P1 PLP terminated with the Gd-DOTA terminating agent (contrast agent tag) for ICPMS quantification (HVLVMSATRR-NH2; not fully specified (N-terminus); also: side chains of polynorbornene homopolymer (PLP, ROMP), Gd-DOTA terminating agent on polymer terminus)”, the “biodistribution, main organs” value [1] was “majority of the compound injected ends up in the liver and kidney”, the “detection in the CNS” value [1] was “detectable in the CNS” and the “increase in half-life compared to the HV3-TAT peptide” value [1] was 3000 fold. It also gave a distribution half-life ([1]; iv, 10 mg/kg) of 0.333 h and an elimination half-life ([1]; iv, 10 mg/kg) of 152 h.
With “P1-Rho: rhodamine labeled version of P1 (HVLVMSATRR-NH2; not fully specified (N-terminus); also: side chains of polynorbornene homopolymer (PLP), rhodamine label (site not given here))” the “cell association by flow cytometry” value (HdhQ111 cells [2]) was “significantly better cell association”, the “presence of compound in cells after one initial treatment” value (HdhQ111 cells [3]) was “detected” and the mitochondrial localization (HdhQ111 cells [4]) was “exhibited overlapping signals with mitochondria”.
For “P2: PLP homopolymer having peptide side chains of SEQ ID: 2 (HVLVMSATKK) (HVLVMSATKK-NH2; not fully specified (N-terminus); also: side chains of polynorbornene homopolymer (PLP))”, the cell viability (HdhQ111 cells [5]) was “higher significance than P3”.
For “P4: PLP homopolymer having peptide side chains of SEQ ID: 4 (HVLVMSATKKKK) (HVLVMSATKKKK-NH2; not fully specified (N-terminus); also: side chains of polynorbornene homopolymer (PLP))”, the “association of VCP to mtHtt (VCP binding)” value [6] was “exhibited evidence for binding”, the cell viability (HdhQ111 cells [5]) was “higher significance than P3” and the fragmented mitochondria (HdhQ111 cells [7]) was “significantly fewer fragmented mitochondria”.
With “PLP homopolymer having peptide side chains of SEQ ID: 1 (HVLVMSATRR)” the not cleaved (pepsin) was “no cleavage observed for up to 450 min”, the not cleaved [8] was “maintained molecular weight running together with the untreated P1 control” and the not cleaved [9] was “stability of P1 seen with serum treatments”. For the same substance, the not cleaved [10] was “stability of P1 seen with serum treatments”.
